Results on three molecules are retold here after PubChem BioAssay AID2060501 (Molecular Pharmacology Branch, DTP, NCI, 2025).

Each structure is given as a SMILES string.
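Note: spheroids exposed to compounds for 7 days before readout; percent of vehicle DMSO control viability with 100% = untreated-like growth.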

One test has as its system 282377-053-R-J1-PDC complex spheroids, viability. Put plainly: Anticancer human tumor 282377-053-R-J1-PDC patient-derived colon adenocarcinoma cell line growth inhibition [GQUAD]. The settings on record: second compound 1 µM; first compound 0.316 µM; active compounds read low. The text has this: DNA G-quadruplex Stabilizer Agents in Combinations in Complex Spheroids
A high-throughput screen of multi-cell type tumor spheroids was designed to identify active combinations of DNA G-quadruplex stabilizer agents and targeted small molecules. Complex spheroids include a stromal component modeled by human endothelial cells (HUVEC) and fibroblasts modeled by human mesenchymal stem cells (MSCs). The concentration ranges selected for each drug and investigational agent were based upon clinically achievable concentrations if the clinical Cmax of the agent was known.
Compounds. The drugs and investigational agents: pidnarulex (CX-5461; NSC782164), APTO-253 (NSC789042), BRACO-19 (NSC847499), peposertib (NSC802822), ceralasertib (NSC780249), elimusertib (NSC800525), camonsertib (NSC841442), AZD-1390 (NSC803789), olaparib (NSC753686), talazoparib (NSC767125), ART-558 (NSC835418), sotorasib (NSC818433), MRTX-1133 (NSC836407), SN-38 (NSC673596), topotecan (NSC609699), etoposide (NSC141540), doxorubicin (NSC123127), gemcitabine (NSC613327), 5-fluorouracil (NSC19893), paclitaxel (NSC125973), vemurafenib (NSC761431), panobinostat (NSC761190), R-306465 (JNJ-16241199; NSC773264), adavosertib (NSC754352), TP-3654 (NSC805149), carboplatin (NSC241240), KSQ-4279 (NSC840948), and staurosporine (NSC755774) were obtained from the National Cancer Institute (NCI) Developmental Therapeutics Program Chemical Repository (34). The FDA-approved anticancer drug set is available from the NCI Developmental Therapeutics Program. […] The stock solutions were prepared in dimethyl sulfoxide (DMSO, Sigma-Aldrich, St. Louis, MO, cat. D2650) at 800-fold the tested concentration and stored at -70 degrees C prior to their use. All drugs and investigational agents were tested over a range starting from a high concentration at or near the clinical Cmax and decreasing in half-log increments. If the clinical Cmax for an agent had not been determined, the highest concentration tested was 10 microM.
2.3 Cell Culture. All cells were maintained in an incubator at 37 degrees C and 5% CO2 with 95% humidity. The PDC lines were cultured according to standard operating procedures established by the NCI PDMR. All PDCs were thawed and cultured in Matrigel-coated flasks prepared with a working solution of 1X Ham's F-12 nutrient mix, without supplementation (Invitrogen, cat. 11765054), 100 U/mL penicillin-streptomycin (Invitrogen, cat. 15140122), and 2.5% Matrigel (Corning Inc., cat. 354248) for the first three passages. The 857933-349-R-J2-PDC line was cultured in 6C/Colon 1B media, which includes advanced DMEM/F-12 (Thermo Fisher Scientific, cat. 12634028), 10 mM HEPES (Thermo Fisher Scientific, cat. 15630080), 1X GlutaMAX supplement (Thermo Fisher Scientific, cat. 35050061), 0.1 mg/mL primocin (InvivoGen, cat. ant-pm-2), 10% defined fetal bovine serum, heat inactivated (HyClone Laboratories Inc., cat. SH30070.03HI), 50% L-WRN conditioned media (ATCC, cat. CRL-3276), 1.25 mM N-Acetyl-L-cysteine (Sigma-Aldrich, cat. A9165), 10 mM nicotinamide (Sigma-Aldrich, cat. N0636), 1X B-27 supplement (Thermo Fisher Scientific, cat. 17504044), 1X N-2 supplement (Thermo Fisher Scientific, cat. 17502048), 10 microM Y-27632 dihydrochloride (Tocris Bioscience, cat. 1254), and 50 ng/mL human EGF recombinant protein (Thermo Fisher Scientific, cat. PHG0311). The 485176-168-R4-J1-PDC line was cultured in Panc media, which includes all 6C/Colon 1B media components plus 100 ng/mL human FGF-10 (Thermo Fisher Scientific, cat. 100-26), 500 nM SB-431542 (Selleckchem, cat. S1067), and gastrin (Tocris, cat. 3006).
[…]
For the molecule `C#Cc1c(F)ccc2cc(O)cc(-c3ncc4c(N5CC6CCC(C5)N6)nc(OCC56CCCN5CC(F)C6)nc4c3F)c12` (stereo unspecified) + CN(C)c1ccc(Nc2c3ccc(NC(=O)CCN4CCCC4)cc3nc3cc(NC(=O)CCN4CCCC4)ccc23)cc1, the viability, T/C is 70.7%.
The same measure, in the same setting: under `C=CC(=O)N1CCN(c2nc(=O)n(-c3c(C)ccnc3C(C)C)c3nc(-c4c(O)cccc4F)c(F)cc23)C(C)C1` (stereo unspecified) + CN(C)c1ccc(Nc2c3ccc(NC(=O)CCN4CCCC4)cc3nc3cc(NC(=O)CCN4CCCC4)ccc23)cc1 stands 98.5%; under `COc1cccc2c1C(=O)c1c(O)c3c(c(O)c1C2=O)CC(O)(C(=O)CO)CC3OC1CC(N)C(O)C(C)O1` (stereo unspecified) + CN(C)c1ccc(Nc2c3ccc(NC(=O)CCN4CCCC4)cc3nc3cc(NC(=O)CCN4CCCC4)ccc23)cc1, 106%.

Staying with this test, now noted: second compound 1 µM; first compound 1 µM; active compounds read low.
Regarding `C#Cc1c(F)ccc2cc(O)cc(-c3ncc4c(N5CC6CCC(C5)N6)nc(OCC56CCCN5CC(F)C6)nc4c3F)c12` (stereo unspecified) + CN(C)c1ccc(Nc2c3ccc(NC(=O)CCN4CCCC4)cc3nc3cc(NC(=O)CCN4CCCC4)ccc23)cc1, the viability, T/C was 89.9%.
As for `C=CC(=O)N1CCN(c2nc(=O)n(-c3c(C)ccnc3C(C)C)c3nc(-c4c(O)cccc4F)c(F)cc23)C(C)C1` (stereo unspecified) + CN(C)c1ccc(Nc2c3ccc(NC(=O)CCN4CCCC4)cc3nc3cc(NC(=O)CCN4CCCC4)ccc23)cc1, the viability, T/C was 95.9%.
Still for that read-out and setting: the value for `COc1cccc2c1C(=O)c1c(O)c3c(c(O)c1C2=O)CC(O)(C(=O)CO)CC3OC1CC(N)C(O)C(C)O1` (stereo unspecified) + CN(C)c1ccc(Nc2c3ccc(NC(=O)CCN4CCCC4)cc3nc3cc(NC(=O)CCN4CCCC4)ccc23)cc1 was 73.8%.

Staying with this test, now noted: second compound 1 µM; first compound 3.16 µM; active compounds read low.
`C#Cc1c(F)ccc2cc(O)cc(-c3ncc4c(N5CC6CCC(C5)N6)nc(OCC56CCCN5CC(F)C6)nc4c3F)c12` (stereo unspecified) + CN(C)c1ccc(Nc2c3ccc(NC(=O)CCN4CCCC4)cc3nc3cc(NC(=O)CCN4CCCC4)ccc23)cc1: the viability, T/C was 91.2%.
On to `C=CC(=O)N1CCN(c2nc(=O)n(-c3c(C)ccnc3C(C)C)c3nc(-c4c(O)cccc4F)c(F)cc23)C(C)C1` (stereo unspecified) + CN(C)c1ccc(Nc2c3ccc(NC(=O)CCN4CCCC4)cc3nc3cc(NC(=O)CCN4CCCC4)ccc23)cc1, for which the viability, T/C is 90.5%.
For `COc1cccc2c1C(=O)c1c(O)c3c(c(O)c1C2=O)CC(O)(C(=O)CO)CC3OC1CC(N)C(O)C(C)O1` (stereo unspecified) + CN(C)c1ccc(Nc2c3ccc(NC(=O)CCN4CCCC4)cc3nc3cc(NC(=O)CCN4CCCC4)ccc23)cc1, the viability, T/C was 39.5%.

Staying with this test, now noted: second compound 1 µM; first compound 10 µM; active compounds read low.
On to `C#Cc1c(F)ccc2cc(O)cc(-c3ncc4c(N5CC6CCC(C5)N6)nc(OCC56CCCN5CC(F)C6)nc4c3F)c12` (stereo unspecified) + CN(C)c1ccc(Nc2c3ccc(NC(=O)CCN4CCCC4)cc3nc3cc(NC(=O)CCN4CCCC4)ccc23)cc1, for which the viability, T/C was 78.4%.
Consider `C=CC(=O)N1CCN(c2nc(=O)n(-c3c(C)ccnc3C(C)C)c3nc(-c4c(O)cccc4F)c(F)cc23)C(C)C1` (stereo unspecified) + CN(C)c1ccc(Nc2c3ccc(NC(=O)CCN4CCCC4)cc3nc3cc(NC(=O)CCN4CCCC4)ccc23)cc1, for which the viability, T/C was 92.8%.
The same measure, in the same setting: the value for `COc1cccc2c1C(=O)c1c(O)c3c(c(O)c1C2=O)CC(O)(C(=O)CO)CC3OC1CC(N)C(O)C(C)O1` (stereo unspecified) + CN(C)c1ccc(Nc2c3ccc(NC(=O)CCN4CCCC4)cc3nc3cc(NC(=O)CCN4CCCC4)ccc23)cc1 was 1.89%.

Staying with this test, now noted: second compound 3.16 µM; first compound 0.0316 µM; active compounds read low.
In the case of `C#Cc1c(F)ccc2cc(O)cc(-c3ncc4c(N5CC6CCC(C5)N6)nc(OCC56CCCN5CC(F)C6)nc4c3F)c12` (stereo unspecified) + CN(C)c1ccc(Nc2c3ccc(NC(=O)CCN4CCCC4)cc3nc3cc(NC(=O)CCN4CCCC4)ccc23)cc1, the viability, T/C was 78.9%.
For `C=CC(=O)N1CCN(c2nc(=O)n(-c3c(C)ccnc3C(C)C)c3nc(-c4c(O)cccc4F)c(F)cc23)C(C)C1` (stereo unspecified) + CN(C)c1ccc(Nc2c3ccc(NC(=O)CCN4CCCC4)cc3nc3cc(NC(=O)CCN4CCCC4)ccc23)cc1, the viability, T/C was 105%.
On the same count and under the same terms, under `COc1cccc2c1C(=O)c1c(O)c3c(c(O)c1C2=O)CC(O)(C(=O)CO)CC3OC1CC(N)C(O)C(C)O1` (stereo unspecified) + CN(C)c1ccc(Nc2c3ccc(NC(=O)CCN4CCCC4)cc3nc3cc(NC(=O)CCN4CCCC4)ccc23)cc1 stands 97.8%.

Staying with this test, now noted: second compound 3.16 µM; first compound 0.1 µM; active compounds read low.
As to `C#Cc1c(F)ccc2cc(O)cc(-c3ncc4c(N5CC6CCC(C5)N6)nc(OCC56CCCN5CC(F)C6)nc4c3F)c12` (stereo unspecified) + CN(C)c1ccc(Nc2c3ccc(NC(=O)CCN4CCCC4)cc3nc3cc(NC(=O)CCN4CCCC4)ccc23)cc1, the viability, T/C is 75.2%.
